# Measured values from patent US10118947B2, “Modulation of structured polypeptide specificity” (BICYCLE THERAPEUTICS LIMITED, priority 2013, dated 2018).
# Numbered stars: 1 amine (or outer) side, 2 acyl side, 3 side chain; on linkers, the order of the positions; unused ones are H or OH. Bridge positions count the residues as written; N and C are the ends. Square brackets hold non-standard residues; d marks the D form. Peptide text beside a SMILES is read from it. Pro(4R-Bn) = O=C(O)[C@@H]1C[C@@H](Cc2ccccc2)CN1; Bip = N[C@@H](Cc1ccc(-c2ccccc2)cc1)C(=O)O; Tpi = O=C(O)[C@@H]1Cc2c([nH]c3ccccc23)CN1; Dip = N[C@H](C(=O)O)C(c1ccccc1)c1ccccc1; X2 = O=C([C@@H]1Cc2ccccc2N1[*:1])[*:2]; TBMB = c1c(C[*:1])cc(C[*:3])cc1C[*:2]; Hyp = O=C(O)[C@@H]1C[C@@H](O)CN1; 3Pal = N[C@@H](Cc1cccnc1)C(=O)O; 4Pal = N[C@@H](Cc1ccncc1)C(=O)O; Pen = CC(C)(S)[C@H](N)C(=O)O; Pip = O=C(O)[C@@H]1CCCCN1; Aib = CC(C)(N)C(=O)O
# Test: Plasma stability profiling Method #1 (MALDI-TOF, 35% plasma), rat plasma
# Assay type: in vitro ADME
# Conditions: Table 12; method #1
# Procedure: A rapid plasma stability profiling assay was developed that employed mass spectrometric detection (MALDI-TOF, Voyager DE, Applied Biosystems) of the parent mass, until the time when the parent peptide mass was no longer observable. Specifically, 200 uM of peptide was incubated in the presence of 35% rat or human plasma (Sera labs, using citrate as anticoagulant) at 37 deg C., which was supplemented with 1×PBS (derived from a 10×PBS Stock, Sigma). At various time points (i.e. t=0, 3, 24 hrs, henceafter daily up to 10 days), 2 uL of sample was added to 18 uL of 30 mM ammonium bicarbonate in a 1:1 mixture of acetonitrile:H2O. Samples were frozen at −80 deg C. until the time of analysis. For mass spectrometric analysis that determines the approximate detection window of the peptide, the acetonitrile:H2O-diluted sample of a given time point was spotted directly (0.7 uL) onto the MALDI plate. Matrix (alpha-cyanocinnamic acid, Sigma, prepared as a saturated solution in 1:1 acetonitrile:water containing 0.1% trifluoroacetic acid) was layered over the sample (1 uL). At a similar laser intensity setting on the MALDI TOF, the time could then be determined until parent peptide was no longer detectable. It should be noted that this is a qualitative assay serves to detect relative changes in plasma stability.
row,Structure (SMILES),"Observable in rat plasma, for days [days]"
1,CC(=O)N[C@H]1CSCc2cc3cc(c2)CSC[C@H](NC(=O)[C@H](CCCNC(=N)N)NC(=O)[C@H](C)NC(=O)[C@@H]2CCCN2C(=O)[C@H](Cc2ccncc2)NC(=O)[C@H](CO)NC1=O)C(=O)N[C@@H](CC(C)C)C(=O)N[C@@H](Cc1c[nH]cn1)C(=O)N[C@@H](CCC(N)=O)C(=O)N[C@@H](CC(=O)O)C(=O)N[C@@H](CC(C)C)C(=O)N[C@H](C(N)=O)CSC3 [Ac-(06-34-18) 4Pal2] (Ac-CS[4Pal]PARCLHQDLC-NH2; linker 1-7-13 via TBMB),2
2,"CC(=O)N[C@H]1CSCc2cc3cc(c2)CSC[C@H](NC(=O)[C@H](CCCNC(=N)N)NC(=O)[C@H](C)NC(=O)[C@@H]2CCCN2C(=O)[C@H](C(c2ccccc2)c2ccccc2)NC(=O)[C@H](CO)NC1=O)C(=O)N[C@@H](CC(C)C)C(=O)N[C@@H](Cc1c[nH]cn1)C(=O)N[C@@H](CCC(N)=O)C(=O)N[C@@H](CC(=O)O)C(=O)N[C@@H](CC(C)C)C(=O)N[C@H](C(N)=O)CSC3 [Ac-(06-34-18) 3,3-DPA2] (Ac-CS[Dip]PARCLHQDLC-NH2; linker 1-7-13 via TBMB)",2
3,"CC(=O)N[C@H]1CSCc2cc3cc(c2)CSC[C@H](NC(=O)[C@H](CCCNC(=N)N)NC(=O)[C@H](C)NC(=O)[C@@H]2CCCN2C(=O)[C@H](Cc2ccc(-c4ccccc4)cc2)NC(=O)[C@H](CO)NC1=O)C(=O)N[C@@H](CC(C)C)C(=O)N[C@@H](Cc1c[nH]cn1)C(=O)N[C@@H](CCC(N)=O)C(=O)N[C@@H](CC(=O)O)C(=O)N[C@@H](CC(C)C)C(=O)N[C@H](C(N)=O)CSC3 [Ac-(06-34-18) 4,4,BPal2] (Ac-CS[Bip]PARCLHQDLC-NH2; linker 1-7-13 via TBMB)",2
4,CC(=O)N[C@H]1CSCc2cc3cc(c2)CSC[C@H](NC(=O)[C@H](CCCNC(=N)N)NC(=O)[C@H](C)NC(=O)[C@@H]2CCCN2C(=O)[C@H](Cc2cccnc2)NC(=O)[C@H](CO)NC1=O)C(=O)N[C@@H](CC(C)C)C(=O)N[C@@H](Cc1c[nH]cn1)C(=O)N[C@@H](CCC(N)=O)C(=O)N[C@@H](CC(=O)O)C(=O)N[C@@H](CC(C)C)C(=O)N[C@H](C(N)=O)CSC3 [Ac-(06-34-18) 3Pal2] (Ac-CS[3Pal]PARCLHQDLC-NH2; linker 1-7-13 via TBMB),2

# Same assay, conditions: Table 13; method #1
row,Structure (SMILES),"Observable in rat plasma, for days [days]"
1,CC(=O)N[C@H]1CSCc2cc3cc(c2)CSC[C@H](NC(=O)[C@H](CCCNC(=N)N)NC(=O)[C@H](C)NC(=O)[C@@H]2Cc4ccccc4N2C(=O)[C@H](Cc2c[nH]c4ccccc24)NC(=O)[C@H](CO)NC1=O)C(=O)N[C@@H](CC(C)C)C(=O)N[C@@H](Cc1c[nH]cn1)C(=O)N[C@@H](CCC(N)=O)C(=O)N[C@@H](CC(=O)O)C(=O)N[C@@H](CC(C)C)C(=O)N[C@H](C(N)=O)CSC3 [Ac-(06-34-18) Ind3] (Ac-CSW[X2]ARCLHQDLC-NH2; linker 1-7-13 via TBMB),2
2,CC(=O)N[C@H]1CSCc2cc3cc(c2)CSC[C@H](NC(=O)[C@H](CCCNC(=N)N)NC(=O)[C@H](C)NC(=O)[C@@H]2CCCCN2C(=O)[C@H](Cc2c[nH]c4ccccc24)NC(=O)[C@H](CO)NC1=O)C(=O)N[C@@H](CC(C)C)C(=O)N[C@@H](Cc1c[nH]cn1)C(=O)N[C@@H](CCC(N)=O)C(=O)N[C@@H](CC(=O)O)C(=O)N[C@@H](CC(C)C)C(=O)N[C@H](C(N)=O)CSC3 [Ac-(06-34-18) Pip3] (Ac-CSW[Pip]ARCLHQDLC-NH2; linker 1-7-13 via TBMB),2
3,CC(=O)N[C@H]1CSCc2cc3cc(c2)CSC[C@H](NC(=O)[C@H](CCCNC(=N)N)NC(=O)[C@H](C)NC(=O)C(C)(C)NC(=O)[C@H](Cc2c[nH]c4ccccc24)NC(=O)[C@H](CO)NC1=O)C(=O)N[C@@H](CC(C)C)C(=O)N[C@@H](Cc1c[nH]cn1)C(=O)N[C@@H](CCC(N)=O)C(=O)N[C@@H](CC(=O)O)C(=O)N[C@@H](CC(C)C)C(=O)N[C@H](C(N)=O)CSC3 [Ac-(06-34-18) Aib3] (Ac-CSW[Aib]ARCLHQDLC-NH2; linker 1-7-13 via TBMB),2
4,CC(=O)N[C@H]1CSCc2cc3cc(c2)CSC[C@H](NC(=O)[C@H](CCCNC(=N)N)NC(=O)[C@H](C)NC(=O)[C@@H]2C[C@@H](O)CN2C(=O)[C@H](Cc2c[nH]c4ccccc24)NC(=O)[C@H](CO)NC1=O)C(=O)N[C@@H](CC(C)C)C(=O)N[C@@H](Cc1c[nH]cn1)C(=O)N[C@@H](CCC(N)=O)C(=O)N[C@@H](CC(=O)O)C(=O)N[C@@H](CC(C)C)C(=O)N[C@H](C(N)=O)CSC3 [Ac-(06-34-18) HyP3] (Ac-CSW[Hyp]ARCLHQDLC-NH2; linker 1-7-13 via TBMB),2
5,CC(=O)N[C@H]1CSCc2cc3cc(c2)CSC[C@H](NC(=O)[C@H](CCCNC(=N)N)NC(=O)[C@H](C)NC(=O)[C@@H]2C[C@@H](Cc4ccccc4)CN2C(=O)[C@H](Cc2c[nH]c4ccccc24)NC(=O)[C@H](CO)NC1=O)C(=O)N[C@@H](CC(C)C)C(=O)N[C@@H](Cc1c[nH]cn1)C(=O)N[C@@H](CCC(N)=O)C(=O)N[C@@H](CC(=O)O)C(=O)N[C@@H](CC(C)C)C(=O)N[C@H](C(N)=O)CSC3 [Ac-(06-34-18) 4Benzyl Pro3] (Ac-CSW[Pro(4R-Bn)]ARCLHQDLC-NH2; linker 1-7-13 via TBMB),2
6,CC(=O)N[C@H]1CSCc2cc3cc(c2)CSC[C@H](NC(=O)[C@H](CCCNC(=N)N)NC(=O)[C@H](C)NC(=O)[C@@H]2Cc4c([nH]c5ccccc45)CN2C(=O)[C@H](Cc2c[nH]c4ccccc24)NC(=O)[C@H](CO)NC1=O)C(=O)N[C@@H](CC(C)C)C(=O)N[C@@H](Cc1c[nH]cn1)C(=O)N[C@@H](CCC(N)=O)C(=O)N[C@@H](CC(=O)O)C(=O)N[C@@H](CC(C)C)C(=O)N[C@H](C(N)=O)CSC3 [Ac-(06-34-18) NorHar3] (Ac-CSW[Tpi]ARCLHQDLC-NH2; linker 1-7-13 via TBMB),2

# Same assay, conditions: Table 14; method #1
row,Structure (SMILES),"Observable in rat plasma, for days [days]"
1,CC(=O)N[C@H]1CSCc2cc3cc(c2)CSC[C@H](NC(=O)[C@H](CCCNC(=N)N)NC(=O)C(C)(C)NC(=O)[C@@H]2CCCN2C(=O)[C@H](Cc2c[nH]c4ccccc24)NC(=O)[C@H](CO)NC1=O)C(=O)N[C@@H](CC(C)C)C(=O)N[C@@H](Cc1c[nH]cn1)C(=O)N[C@@H](CCC(N)=O)C(=O)N[C@@H](CC(=O)O)C(=O)N[C@@H](CC(C)C)C(=O)N[C@H](C(N)=O)CSC3 [Ac-(06-34-18) Aib4] (Ac-CSWP[Aib]RCLHQDLC-NH2; linker 1-7-13 via TBMB),7
2,CC(=O)N[C@H]1CSCc2cc3cc(c2)CSC(C)(C)[C@H](NC(=O)[C@H](CCCNC(=N)N)NC(=O)[C@H](C)NC(=O)[C@@H]2CCCN2C(=O)[C@H](Cc2c[nH]c4ccccc24)NC(=O)[C@H](CO)NC1=O)C(=O)N[C@@H](CC(C)C)C(=O)N[C@@H](Cc1c[nH]cn1)C(=O)N[C@@H](CCC(N)=O)C(=O)N[C@@H](CC(=O)O)C(=O)N[C@@H](CC(C)C)C(=O)N[C@H](C(N)=O)CSC3 [Ac-(06-34-18) Cys2ToPen2] (Ac-CSWPAR[Pen]LHQDLC-NH2; linker 1-7-13 via TBMB),5
